Source: US8470357B2, “Methods of treatment with Syk inhibitors” (Portola Pharmaceuticals, Inc., priority 2004, dated 2013)

What was measured:
[1] = tested on: leukocyte adhesion to IL-1β-activated human umbilical endothelial cells; experiment: Recruitment of leukocytes to activated endothelial cells under shear; type: cell-based; conditions: 25 or 50 μM; citrated human blood, IL-1β-activated endothelial cells, shear 650/sec (FIG. 4)
Description: Briefly, cultured monolayers of human umbilical endothelial cells were activated by exposure to IL-1β for 24 hrs. Human blood, anticoagulated with citrate, was exposed to the activated endothelial cells at a shear rate of 650/sec for the time indicated.

[2] = tested on: platelet thrombus formation on type III collagen; experiment: Platelet thrombus formation on type III collagen under shear; type: cell-based, human
Experimental: Briefly, unanticoagulated human blood was exposed to type III collagen for 4 minutes at a rate of shear (e.g., about 850/sec.) equivalent to that encountered in coronary arteries.

[3] = tested on: leukocyte rolling on activated, collagen-adhering platelets; experiment: Recruitment of leukocytes to adherent, activated platelets under shear; type: cell-based; conditions: increasing concentrations; citrated human blood with 2.5 μM Integrilin, type III collagen, 10 minutes, shear 650/sec (FIG. 3)
Experimental: Briefly, human blood, anticoagulated with citrate in the presence of 2.5 μM Integrilin, was exposed for 10 minutes to type III collagen at a shear rate of 650/sec.

CC(=O)N(C)c1ccc(Nc2nc(NC3CCC3)c3[nH]cnc3n2)cc1.Cl [NVP-QAB205]
inhibition of leukocyte adhesion to activated endothelial cells [1]: marked inhibition of leukocyte adhesion | platelet adhesion ([2]; at 5, 10, and 25 μM (see FIG. 2)): did not completely block platelet adhesion | inhibition of thrombus formation ([2]; increasing concentrations, unanticoagulated human blood, type III collagen, 4 minutes, shear about 850/sec (FIG. 2)): caused inhibition of thrombus formation | inhibition of leukocyte rolling [3]: caused inhibition of leukocyte rolling
